We go through 13 molecules from patent US11578069B2, “Compounds for inhibition of α4 β7 integrin” (Gilead Sciences, Inc., priority 2019, dated 2023).

SMILES strings stand for the structures.

By EC50 is commonly meant the concentration at which the effect is half-maximal.

The target in one test is T1, α4β7 integrin (Homo sapiens, UniProt P13612+P26010).
T1 construct: monitoring the capture of α4β7 integrin expressing cells; endogenous in cells; host or cells: RPMI8866
T1 sequence (P13612 34-1032): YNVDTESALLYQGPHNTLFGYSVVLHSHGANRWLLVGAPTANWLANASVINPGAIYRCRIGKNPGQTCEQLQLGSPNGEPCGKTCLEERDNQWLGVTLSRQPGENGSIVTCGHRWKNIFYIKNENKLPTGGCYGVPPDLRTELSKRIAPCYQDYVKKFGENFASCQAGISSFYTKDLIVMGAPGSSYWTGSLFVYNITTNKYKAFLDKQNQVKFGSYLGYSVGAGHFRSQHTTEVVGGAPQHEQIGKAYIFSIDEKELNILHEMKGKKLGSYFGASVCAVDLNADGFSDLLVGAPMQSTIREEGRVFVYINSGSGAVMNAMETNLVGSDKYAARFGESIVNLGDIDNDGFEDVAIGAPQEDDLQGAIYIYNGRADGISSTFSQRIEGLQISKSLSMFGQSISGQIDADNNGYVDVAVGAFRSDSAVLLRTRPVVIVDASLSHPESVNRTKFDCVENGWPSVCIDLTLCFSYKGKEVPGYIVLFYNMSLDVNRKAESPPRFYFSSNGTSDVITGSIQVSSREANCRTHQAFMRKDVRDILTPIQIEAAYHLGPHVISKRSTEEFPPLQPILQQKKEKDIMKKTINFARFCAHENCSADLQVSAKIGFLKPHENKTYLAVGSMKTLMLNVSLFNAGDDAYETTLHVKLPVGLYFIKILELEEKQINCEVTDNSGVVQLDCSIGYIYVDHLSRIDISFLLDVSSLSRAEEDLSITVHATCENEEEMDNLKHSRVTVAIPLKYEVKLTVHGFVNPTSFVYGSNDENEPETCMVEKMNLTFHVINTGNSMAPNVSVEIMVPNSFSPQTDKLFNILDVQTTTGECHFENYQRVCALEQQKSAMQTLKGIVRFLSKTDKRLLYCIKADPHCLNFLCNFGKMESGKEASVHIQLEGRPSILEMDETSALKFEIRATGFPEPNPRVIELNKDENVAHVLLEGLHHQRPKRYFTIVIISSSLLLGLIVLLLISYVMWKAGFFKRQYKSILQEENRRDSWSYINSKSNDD
T1 sequence (P26010 20-798): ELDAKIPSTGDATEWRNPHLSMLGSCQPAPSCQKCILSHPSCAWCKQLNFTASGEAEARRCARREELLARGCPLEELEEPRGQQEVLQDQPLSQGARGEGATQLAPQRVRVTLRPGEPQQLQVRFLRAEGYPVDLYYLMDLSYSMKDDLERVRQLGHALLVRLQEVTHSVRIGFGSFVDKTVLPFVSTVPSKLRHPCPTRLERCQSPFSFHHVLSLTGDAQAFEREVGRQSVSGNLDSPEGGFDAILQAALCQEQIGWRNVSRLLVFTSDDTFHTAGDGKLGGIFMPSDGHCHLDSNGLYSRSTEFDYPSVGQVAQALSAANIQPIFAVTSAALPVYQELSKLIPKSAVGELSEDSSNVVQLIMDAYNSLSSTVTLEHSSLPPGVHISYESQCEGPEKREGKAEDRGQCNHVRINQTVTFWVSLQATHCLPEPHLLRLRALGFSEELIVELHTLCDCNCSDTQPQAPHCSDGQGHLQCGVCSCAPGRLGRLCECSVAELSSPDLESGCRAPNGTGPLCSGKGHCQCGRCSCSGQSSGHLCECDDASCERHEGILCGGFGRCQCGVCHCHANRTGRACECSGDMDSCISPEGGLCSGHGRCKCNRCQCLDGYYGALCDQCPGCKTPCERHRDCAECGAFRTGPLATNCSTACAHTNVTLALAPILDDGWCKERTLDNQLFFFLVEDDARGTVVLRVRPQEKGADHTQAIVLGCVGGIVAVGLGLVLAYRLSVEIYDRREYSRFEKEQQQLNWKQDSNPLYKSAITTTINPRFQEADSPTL
The test can be described thus: α4β7 Integrin Cell Capture Assay. The note with it: capture of α4β7 integrin expressing RPM18866 cells on MadCAM-1 extracellular domain-coated plate. It is filed as cell-based. How it is done:
The potency of inhibitors in preventing α4β7 integrin interaction with MadCAM-1 was measured by monitoring the capture of α4β7 integrin expressing cells on a recombinant MadCAM-1 extracellular domain-coated plate.
384-well plates (Corning 3702) were coated with MadCAM-1 extracellular domain by dispensing 20 μL of MAdCAM-1 at 1.0 μg/mL per well and incubating overnight at 4° C. The plates were then washed with PBS and blocked with 3% BSA for 2 hours before being washed again.
(§1) RPM18866 cells were spun down and re-suspended in assay medium (DMEM+0.5% FBS+0.5 mM MnCl2) at a density of 0.5×10^6 cells/mL. The cells were then dispensed (60 μL/well) to a 384-well plate (Greiner 781280) that was previously spotted with 60 nL of test compound per well. The plates were incubated at 37° C. for 1 hour. 50 μL of cells were transferred to the blocked, MadCAM-1-coated plates and incubated for 30 minutes at 37° C. 10 μL of 12% glutaraldehyde containing Hoechst 33342 (0.06 mg/mL) was added to the cells (2% glutaraldehyde and 0.01 mg/mL final concentrations). The plates were incubated for 90 minutes at room temperature. The plates were then washed 3 times with 70 μL of PBS per well and imaged on a Cellomics ArrayScan instrument. The cells that were bound to the plate were counted and plotted against the compound concentration to determine the EC50 of the test compounds.

The target of the next test is T2, α4β1 integrin (Homo sapiens, UniProt P05556+P13612).
T2 construct: monitoring the capture of α4β1 expressing cells; endogenous in cells; host or cells: Jurkat
T2 sequence (P05556 21-798, one chain of several): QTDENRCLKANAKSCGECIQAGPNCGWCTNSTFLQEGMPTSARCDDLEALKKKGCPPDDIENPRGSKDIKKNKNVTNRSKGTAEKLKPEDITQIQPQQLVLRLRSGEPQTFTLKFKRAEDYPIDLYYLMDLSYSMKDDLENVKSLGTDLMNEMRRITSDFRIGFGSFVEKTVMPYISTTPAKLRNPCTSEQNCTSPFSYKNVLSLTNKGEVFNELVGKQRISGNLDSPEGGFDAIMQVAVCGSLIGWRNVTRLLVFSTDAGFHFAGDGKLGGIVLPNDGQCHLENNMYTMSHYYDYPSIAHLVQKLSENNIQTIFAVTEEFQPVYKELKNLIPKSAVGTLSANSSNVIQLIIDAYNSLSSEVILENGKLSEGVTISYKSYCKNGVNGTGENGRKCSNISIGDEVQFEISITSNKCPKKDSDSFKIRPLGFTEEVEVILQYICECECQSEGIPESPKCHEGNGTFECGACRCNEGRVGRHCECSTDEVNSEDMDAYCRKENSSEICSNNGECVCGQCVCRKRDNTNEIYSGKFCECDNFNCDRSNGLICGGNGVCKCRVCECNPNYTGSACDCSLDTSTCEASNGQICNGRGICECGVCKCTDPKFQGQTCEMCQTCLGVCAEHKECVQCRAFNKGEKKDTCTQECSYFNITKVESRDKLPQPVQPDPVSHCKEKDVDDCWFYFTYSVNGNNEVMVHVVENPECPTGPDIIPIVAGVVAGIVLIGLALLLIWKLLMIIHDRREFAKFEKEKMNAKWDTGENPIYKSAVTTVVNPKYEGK
Description: α4β1 Cell Capture Assay. The class given is cell-based. The note with it: capture of α4β1 expressing Jurkat cells on VCAM-1 extracellular domain-coated plate. On the procedure: The potency of inhibitors in preventing α4β1 integrin interaction with VCAM-1 was measured by monitoring the capture of α4β1 expressing cells to a recombinant VCAM-1 extracellular domain-coated plate.
384-well plates (Corning 3702) were coated with VCAM-1 extracellular domain by dispensing 20 μL of VCAM-1 at 0.5 μg/ml per well and incubating overnight at 4° C. The plates were then washed with PBS and blocked with 3% BSA for 2 hours before being washed again.
as §1, with “Jurkat cells” for “RPM18866 cells”, “0.5×10^6 cells/ml.” for “0.5×10^6 cells/mL.”, “blocked, VCAM-1-coated” for “blocked, MadCAM-1-coated”, “10 μl” for “10 μL”, “0.01 mg/ml Hoechst 33342” for “0.01 mg/mL”

Regarding `Cc1cc(N2CCOC[C@@H]2C(F)(F)F)cc(F)c1C(=O)N[C@@H](Cc1cc(F)c(-n2c(=O)c3ccncc3n(C)c2=O)c(F)c1)C(=O)O` [Example 80], the EC50 is 0.06 nM on α4β7 integrin (Table 2) and 2.1 nM on α4β1 integrin (Table 2).

As to `CC[C@@H](Nc1cc(C)c(C(=O)N[C@@H](Cc2ccc(-n3c(=O)c4ccncc4n(C)c3=O)nc2)C(=O)O)c(F)c1)C(F)(F)F` [Example 11, (S)-2-(2-fluoro-6-methyl-4-(((R)-1,1,1-trifluorobutan-2-yl)amino)benzamido)-3-(6-(1-methyl-2,4-dioxo-1,4-dihydropyrido[3,4-d]pyrimidin-3(2H)-yl)pyridin-3-yl)propanoic acid], the values for the concentration for a half-maximal effect (EC50) on α4β7 integrin (Table 1) and on α4β1 integrin (Table 1) were 0.5 nM and 30.1 nM, respectively.

With `Cc1cc(C[C@H](NC(=O)c2c(F)cc(N3CCOC[C@@H]3C(F)(F)F)cc2F)C(=O)O)ccc1-c1c(C)n(C)c(=O)n(C)c1=O` [Example 39], the concentration for a half-maximal effect (EC50) on α4β7 integrin (Table 2) worked out at 0.4 nM; at α4β1 integrin (Table 2), 12.8 nM.

For `CC[C@@H](Nc1cc(F)c(C(=O)N[C@@H](Cc2ccc(-c3c(C)c4cc(F)ccc4n(C)c3=O)nc2)C(=O)O)c(F)c1)C(F)(F)F` [Example 44], the EC50 on α4β7 integrin (Table 2) came to 2.9 nM; at α4β1 integrin (Table 2) it was 37.6 nM.

With `Cc1cc(N2CCOC[C@@H]2C(F)(F)F)cc(F)c1C(=O)N[C@@H](Cc1ccc(-n2c(=O)c3c(n(C)c2=O)CCOC3)cc1)C(=O)O` [Example 59, (S)-2-(2-fluoro-6-methyl-4-((R)-3-(trifluoromethyl)morpholino)benzamido)-3-(4-(1-methyl-2,4-dioxo-1,5,7,8-tetrahydro-2H-pyrano[4,3-d]pyrimidin-3(4H)-yl)phenyl)propanoic acid], the half-maximal effective concentration (EC50) at α4β7 integrin (Table 1) was determined as 0.1 nM; on α4β1 integrin (Table 1), 2.9 nM.

For the molecule `Cc1cc(C[C@H](NC(=O)c2c(C)cc(N3CCOC[C@@H]3C(F)(F)F)cc2F)C(=O)O)ccc1-c1c(C)n(C)c(=O)n(C)c1=O` [Example 31], the EC50 at α4β7 integrin (Table 2) came out at 0.2 nM; on α4β1 integrin (Table 2) it was 11.6 nM.

For the molecule `CC[C@@H](Nc1cc(F)c(C(=O)N[C@@H](Cc2ccc(-n3c(=O)c4ccncc4n(C)c3=O)nc2)C(=O)O)c(F)c1)C(F)(F)F` [Example 9, (S)-2-(2,6-difluoro-4-(((R)-1,1,1-trifluorobutan-2-yl)amino)benzamido)-3-(6-(1-methyl-2,4-dioxo-1,4-dihydropyrido[3,4-d]pyrimidin-3(2H)-yl)pyridin-3-yl)propanoic acid], the EC50 amounted to 1.6 nM on α4β7 integrin (Table 1) and 117 nM at α4β1 integrin (Table 1).

With `Cc1cc(N2CCOC[C@@H]2C(F)(F)F)cc(F)c1C(=O)N[C@@H](Cc1ccc(-n2c(=O)c3cc(C#N)ccc3n(C)c2=O)nc1)C(=O)O` [Example 74], the EC50 on α4β7 integrin (Table 2) was determined as 0.14 nM; on α4β1 integrin (Table 2), 5.2 nM.

Turning to `Cc1cc(N2CCOC[C@@H]2CC(F)F)cc(F)c1C(=O)N[C@@H](Cc1ccc(-n2c(=O)c3c(n(C)c2=O)COC3)cc1)C(=O)O` [Example 70, (S)-2-(4-((S)-3-(2,2-difluoroethyl)morpholino)-2-fluoro-6-methylbenzamido)-3-(4-(1-methyl-2,4-dioxo-1,2,5,7-tetrahydrofuro[3,4-d]pyrimidin-3(4H)-yl)phenyl)propanoic acid], the EC50 on α4β7 integrin (Table 1) worked out at 3.9 nM; on α4β1 integrin (Table 1) it was 2.4 nM.

On to `Cc1cc(N2CCOC[C@@H]2C(F)(F)F)cc(F)c1C(=O)N[C@@H](Cc1ccc(-n2c(=O)c3c(n(C)c2=O)CCC3)cc1)C(=O)O` [Example 64, (S)-2-(2-fluoro-6-methyl-4-((R)-3-(trifluoromethyl)morpholino)benzamido)-3-(4-(1-methyl-2,4-dioxo-1,2,4,5,6,7-hexahydro-3H-cyclopenta[d]pyrimidin-3-yl)phenyl)propanoic acid], for which the EC50 amounted to 0.1 nM at α4β7 integrin (Table 1) and 1.8 nM at α4β1 integrin (Table 1).

Take `Cc1c(C(F)(F)F)cn(C)c(=O)c1-c1ccc(C[C@H](NC(=O)c2c(F)cc(N3CCOC[C@@H]3C(F)(F)F)cc2F)C(=O)O)cc1` [Example 4, (S)-2-(2,6-difluoro-4-((R)-3-(trifluoromethyl)morpholino)benzamido)-3-(4-(1,4-dimethyl-2-oxo-5-(trifluoromethyl)-1,2-dihydropyridin-3-yl)phenyl)propanoic acid]: the EC50 was determined as 1.2 nM at α4β7 integrin (Table 1) and 63.7 nM at α4β1 integrin (Table 1).

On to `Cc1nc(-c2ccc(C[C@H](NC(=O)c3c(F)cc(N4CCOC[C@@H]4C(F)(F)F)cc3F)C(=O)O)cc2)c(=O)n(C)c1C` [Example 38], for which the EC50 turned out to be 4.9 nM at α4β7 integrin (Table 2) and 86.1 nM on α4β1 integrin (Table 2).

Regarding `CC[C@@H](Nc1cc(F)c(C(=O)N[C@@H](Cc2ccc(-c3c(C(F)(F)F)cc(=O)n(C)c3C)cc2)C(=O)O)c(F)c1)C(F)(F)F` [Example 2, (S)-2-(2,6-difluoro-4-(((R)-1,1,1-trifluorobutan-2-yl)amino)benzamido)-3-(4-(1,2-dimethyl-6-oxo-4-(trifluoromethyl)-1,6-dihydropyridin-3-yl)phenyl)propanoic acid], the EC50 was determined as 13.6 nM at α4β7 integrin (Table 1) and 905 nM on α4β1 integrin (Table 1).
